Data as given in patent US20230127304A1, “NEW INHIBITORS FOR THE KEAP1-NRF2 PROTEIN-PROTEIN INTERACTION” (PRESIDENT AND FELLOWS OF HARVARD COLLEGE, priority 2020, published 2023).
“Also recorded” adds a separate entry of the source. Read-outs that look alike come from different tables or passages of the source.

Columns and labels:
NMR solubility assay = format: physicochemical; conditions: 5 μM to 30 μM, PBS buffer, pH 7.4
[1] = Dynamic light scattering (DLS) aggregation; format: physicochemical; conditions: 20 μM compound, triplicates average
Protocol: To test the potential aggregation of hits we used DLS experiments. The experiments were performed on a ZS90 Zetasizer instrument (Malvern Panalytical, UK). Measurements were done in triplicate with 10 scans per run (100 s). […] The 20 μM working solution was made from a 1 mM stock of the compound in DMSO. The data was analysed by the built-in software. Compounds were classified as aggregated when the radius of the measured particles was above the minimum colloidal aggregate size (for small molecules) of 50 nm^39.

NQO1 = NQO1 assay; format: cell-based; conditions: Hepa1c1c7 cells, 48 h; for specific activity of NQO1: 0 uM = 1
Protocol: In this study, the inventors used a […] assay to quantitate the NQO1 levels. […] Specifically, Hepa1c1c7 cells were exposed in 8 replicates to a vehicle ([…]) or 8 serial dilutions of each compound for 48 h. Cells were then lysed and the specific activity of NQO1 was determined using menadione as a substrate.

KEAP1 = molecular target: T1, KEAP1 (Mus musculus, UniProt Q9Z2X8); test: Ligand-detected NMR (DLB, STD, CPMG); format: binding; conditions: 50 μM compound, 5 μM KEAP1 (2.5 μM for iKeap1 and iKeap2)
T1 construct: The cleaved mouse KEAP1 Kelch domain (residues 322-624) consists of 308 amino acids; GST (N, cleaved yes); made in house; host or cells: E. coli BL21(DE3)
Protocol: Data were analysed and visualized in Matlab (MathWorks, MA).

NRF2-KEAP1 interaction [2] = molecular target: T2, NRF2-KEAP1 interaction (Mus musculus, UniProt Q9Z2X8); test: Fluorescence polarization (FP) Level-2 NRF2 peptide displacement; format: binding; conditions: for FP Assay: ability to displace the NRF2-peptide
T2 construct: mouse KEAP1 Kelch domain (residues 322-624); made in house; host or cells: E. coli BL21(DE3); peptide purchased from GenScript USA Inc
Protocol: The measurements were carried out in triplicate, and the three data points for each concentration averaged. IC50 values were determined by fitting the averaged data points to a four parameter logistic curve using the non-linear least squares method provided by the SciPy library for Python^33. The standard error (see Table 5) on the IC50 was computed by taking the square root of the diagonal of the parameter covariant matrix.

GST-KEAP1 = molecular target: T3, GST-KEAP1 (Mus musculus, UniProt Q9Z2X8); test: SPR Level-3 steady-state binding
T3 construct: mouse KEAP1 Kelch domain (residues 322-624); made in house; host or cells: E. coli BL21(DE3)
Description: Req=(Rmax*C)/(Kd+C)+b, (1)
The biphasic binding model is given by the equation
Req=(Rmax,1*C)/(Kd,1+C)+Rmax,2*C/(Kd,2+C)+b, (2)

NRF2-KEAP1 interaction [3] = molecular target: T2, NRF2-KEAP1 interaction; test: BLI displacement assay; format: binding; conditions: ability to displace the NRF2-peptide
Protocol: Bio-layer interferometry binding and displacement assays: NRF2-KEAP1 binding BLI experiments were performed on an Octet RED384 (ForteBio, Menlo Park, Calif., USA) using streptavidin-coated Dip and Read Biosensors (ForteBio) and 384 well plates with 120 μL volume. […] To test for nonspecific binding of GST-KEAP1 protein, reference tips were incubated in buffer alone. […] After measuring association, tips were moved to wells containing buffer, and dissociation was measured for 5 minutes. The data were processed and analysed using the Octet data analysis software version 11.0 (ForteBio, Inc., Menlo Park, Calif., USA). The association-dissociation curve for each concentration was fitted using a 1:1 model given by the equations
Compound screening by BLI displacement assay: The BLI displacement assays were setup as described above. […] The compounds were used at concentrations of […], and pre-incubated with GST-KEAP1 protein. The association phase was measured in the well containing compound with GST-KEAP1 protein for 10 minutes, and followed by a dissociation phase in buffer for 5 minutes. The inhibition percentage was the average BLI signal in the last 50 seconds of the dissociation phase, normalized against the condition of GST-KEAP1 protein in the absence of compound.

[4] = SPR Level-3, independent experiment 2, compounds marked * fitted with biphasic binding model, read-out: Kd, 2

T3 sequence (Q9Z2X8 322-624): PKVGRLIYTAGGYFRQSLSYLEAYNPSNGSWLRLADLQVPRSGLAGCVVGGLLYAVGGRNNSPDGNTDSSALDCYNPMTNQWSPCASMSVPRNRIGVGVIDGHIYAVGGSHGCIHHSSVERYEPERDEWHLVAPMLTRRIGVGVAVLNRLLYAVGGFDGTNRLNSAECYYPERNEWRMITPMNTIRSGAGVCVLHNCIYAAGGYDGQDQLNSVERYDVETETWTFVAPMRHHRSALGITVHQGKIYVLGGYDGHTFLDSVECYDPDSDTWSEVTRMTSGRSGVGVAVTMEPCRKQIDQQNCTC
T1 sequence (Q9Z2X8 322-624): as above
T2 sequence (Q9Z2X8 322-624): as above

Row | SMILES | Radius [1] | specific activity of NQO1 (NQO1; 0.156 uM) | specific activity of NQO1 (NQO1; 0.313 uM) | specific activity of NQO1 (NQO1; 0.625 uM) | specific activity of NQO1 (NQO1; 1.25 uM) | specific activity of NQO1 (NQO1; 2.5 uM) | specific activity of NQO1 (NQO1; 5 uM) | specific activity of NQO1 (NQO1; 10 uM) | specific activity of NQO1 (NQO1; 20 uM) | binding to KEAP1 by ligand-detected NMR (KEAP1) | FP Assay (NRF2-KEAP1 interaction [2]) | BLI Assay (NRF2-KEAP1 interaction [3]) | further results
1 | Cc1ccc(S(=O)(=O)Oc2nc3nc4ccccc4nc3nc2OS(=O)(=O)c2ccc(C)cc2)cc1 [iKeap1] | 2.306 nm | 1.19 | 1.28 | 1.41 | 1.68 | 2.1 | 2.66 | 3.53 | 4.18 |  |  |  | aggregation in NMR solubility assay (NMR solubility assay): does not aggregate; CD (NQO1): 2 µM
2 | O=C(O)c1ccc(NC2=C/C(=N\S(=O)(=O)c3ccc4ccccc4c3)c3ccccc3C2=O)cc1 [iKeap2] | 12.492 nm | 1.13 | 1.2 | 1.33 | 1.49 | 1.91 | 2.75 | 6.08 |  | directly bind to KEAP1 | active | able to displace the NRF2 peptide from KEAP1; also recorded: active | CD (NQO1): 2.7 µM; IC50 (NRF2-KEAP1 interaction [2]; Level-2 FP, displacement of TAMRA-NRF2 peptide): 2700 nM; Kd (GST-KEAP1; SPR Level-3, average of three independent experiments, read-out: Kd average): 252 nM; Kd (GST-KEAP1; [4]): 263 nM; Kd (GST-KEAP1; SPR Level-3, independent experiment 3, compounds marked * fitted with biphasic binding model, read-out: Kd, 3): 334 nM; Kd (GST-KEAP1; steady-state SPR, read-out: Kd (binding affinity to KEAP1)): 158 nM
3 | O=C1OC(c2ccc([N+](=O)[O-])cc2)=N/C1=C\c1cccc2ccccc12 [iKeap4] |  | 1.06 | 1.1 | 1.21 | 1.18 | 1.27 | 1.47 | 1.75 | 2.2 |  |  |  | CD (NQO1): 15 µM
4 | CC1=NN(c2ccccc2)C(=O)/C1=C\c1ccc(-c2cc(C(=O)O)ccc2Cl)o1 [iKeap7] | 3.663 nm | 1.06 | 1.08 | 1.13 | 1.17 | 1.3 | 1.44 | 1.65 | 2.08 | bind to KEAP1 | displacer of the NRF2 peptide; also recorded: active | displacer of the NRF2 peptide; also recorded: active | CD (NQO1): 20 µM
5 | O=C(Nc1cccc(-c2nnn[nH]2)c1)[C@@H]1C[C@H]2CCCC[C@H]2N1C(=O)c1ccc2ccccc2c1 [iKeap8] | 3.340 nm | 1.07 | 1.04 | 1.06 | 1.11 | 1.08 | 1.11 | 1.16 | 1.21 | bind to KEAP1 | able to displace the NRF2 peptide; also recorded: active | able to displace the NRF2 peptide; also recorded: active | 
6 | O=S(=O)(N=C1CCCCCN1)c1ccc2sc(NS(=O)(=O)c3ccc4ccccc4c3)nc2c1 [iKeap9] | 1.862 nm |  |  |  |  |  |  |  |  | bind to KEAP1 | not able to effectively displace the NRF2 peptide | not able to effectively displace the NRF2 peptide | Kd (GST-KEAP1; [4]): 187 nM
7 | O=S(=O)(O)c1ccc(/N=N\c2ccc(/N=N\c3ccc(O)c4cccc(S(=O)(=O)O)c34)cc2)cc1 [iKeap18] |  | 1.09 | 1.09 | 1.19 | 1.18 | 1.29 | 1.39 | 1.58 | 1.79 |  |  |  | CD (NQO1; extrapolated (extp)): 40 (extp) uM
8 | O=C1C[C@@H](c2ccc3ncccc3c2)c2c(cc(O)c3c(=O)cc(-c4ccc(O)cc4)oc23)O1 [iKeap22] | 2.547 nm |  |  |  |  |  |  |  |  | bind to KEAP1 | not active | displacer; also recorded: active | 
9 | Cc1ccc(C)c(N2C(=O)c3ccc(-c4nc(-c5ccc6[nH]nnc6c5)no4)cc3C2=O)c1 [iKeap27] | 2.643 nm |  |  |  |  |  |  |  |  |  | not active | active | 
10 | O=S(=O)(Nc1nc2ccccc2nc1N1CCC[C@@H](c2nc3ccccc3[nH]2)C1)c1ccccc1 [iKeap33] | 1.585 nm |  |  |  |  |  |  |  |  |  | not active | active | 
11 | O=C(c1cc(-c2ccc3c(c2)OCCO3)nc2ccccc12)N1CCC(Cc2ccccc2)CC1 [iKeap41] | 4.446 nm |  |  |  |  |  |  |  |  |  | not active | active | 
12 | CC(=O)N/C(=C\c1ccc(Cc2nc3c([nH]2)C(=O)c2ccccc2C3=O)cc1)c1nc2c([nH]1)C(=O)c1ccccc1C2=O [iKeap48] | 25.579 nm |  |  |  |  |  |  |  |  |  | not active | active | 
13 | C[C@H]1CCc2c(sc3ncnc(N4CCO[C@@H](CN5C(=O)c6ccccc6C5=O)C4)c23)C1 [iKeap73] | 2.510 nm |  |  |  |  |  |  |  |  |  | not active | active | 
14 | C[C@@H]1Oc2ccc(C(=O)C3CCN(C(=O)[C@H]4C[C@H]4c4cccc5ccccc45)CC3)cc2NC1=O [iKeap74] | 3.034 nm |  |  |  |  |  |  |  |  |  | not active | active | 
15 | Cc1cccn2c(=O)c3c(nc12)N1CCCCC[C@H]1[C@]1(C3)C(=O)N(Cc2ccccc2Cl)C(=O)N=C1O [iKeap75] | 3.612 nm |  |  |  |  |  |  |  |  |  | not active | active | 
